From patent US9771562B2, “Method for culture of human and mouse prostate organoids and uses thereof” (THE TRUSTEES OF COLUMBIA UNIVERSITY IN THE CITY OF NEW YORK, priority 2012, dated 2017)
Values joined by “and” are separate entries in the source; they are usually repeats but may differ in a detail not shown here. Equal entries are not always repeated. Where two headings read alike, the source gives them in different places.

Tests used:
[1] = test system: AR; settings: NPK-CARN organoids
Source text: In particular, Nkx3.1^CreERT2/+; Pten^flox/flox; Kras^LSL-G12D/+; R26R-YFP/+ mice (termed NPK) were castrated and induced with tamoxifen, so that combined Pten deletion, Kras^G12D activation, and YFP expression occurred specifically in CARNs (FIG. 33A). Transformed lineage-marked CARNs were isolated by flow cytometry on the basis of their YFP expression, and used for organoid culture.
For immunostaining, sections underwent antigen-retrieval by boiling in citrate acid-based antigen unmasking solution (Vector Labs) for 10 min. Primary antibodies were applied to sections and incubated at 4° C. overnight in a humidified chamber. Alexa Fluors (Life Technologies) were used for secondary antibodies. Tyramide amplification (Life Technologies) or ABC Elite (Vector Labs) kits were used for signal detection.

[2] = test system: organoids established from normal prostate epithelium; settings: absence of DHT versus presence of DHT, after passaging
Method: (§1) To examine the effects of androgen-deprivation, organoids established from normal prostate epithelium were cultured and passaged in the presence or absence of DHT. […] To assess the molecular response to androgen-deprivation, quantitative RT-PCR (qPCR) analysis of the expression of several known AR-regulated genes was performed at passage 1.

[3] = test system: AR
Method: as §1

[4] = test system: organoids from Nkx3.1^CreERT2/+; Pten^flox/flox; R26R-YFP/+ (NP) mice; assay: Drug treatment of NP tumor organoids: efficiency of organoid formation; format: cell-based, mouse; settings: 1 nM MK-8669; for Frequency (efficiency of organoid formation), Average: average of 3 wells; for Frequency (efficiency of organoid formation), Average / Total organoids counted / Frequency (efficiency of organoid formation): 1000 cells/well, 100 nM DHT control, or without DHT: 10 μM enzalutamide; for Total organoids counted / Frequency (efficiency of organoid formation): single wells, counted after 8 days; for Frequency (efficiency of organoid formation): third passage, embedded in Matrigel; for effect on organoid formation: treatment cultures without DHT, 10 μM enzalutamide
Method: Next it was determined whether tumor organoids could be utilized to assess drug response, using organoids from Nkx3.1^CreERT2/+; Pten^flox/flox; R26R-YFP/+ (NP) mice, which were previously used to analyze therapeutic response in vivo [48]. […] To assess therapeutic response, YFP-positive prostate cells were isolated from tamoxifen-induced NP mice for organoid culture, and subsequently dissociated organoids at the third passage to single cell suspensions, followed by plating at 1,000 cells/well embedded within Matrigel/culture medium. Control cultures were established in the presence of DHT, while treatment cultures were established without DHT.
For serial passaging experiments, organoids were passaged at a 1:4 dilution every 1-2 weeks with 0.25% trypsin for 5 minutes at 37° C., followed by mechanical dissociation to nearly single-cell suspensions. Organoids were frozen in complete media with 50% FBS and 10% DMSO. The efficiency of organoid formation was calculated by averaging the number of organoids visible in each well after 7 days of growth using a 10× objective. For statistical analyses, efficiency percentages were arcsin converted to perform unpaired two-tailed Student's t-tests.
The embedding method was used to culture organoids for drug treatment experiments. […] 40 μl of the resulting cell suspension containing 500-3,000 dissociated cells were mixed with 60 μl of Matrigel, and the mixture pipetted around the rim of wells in a 24 well plate. The mixture was allowed to solidify for 30 minutes at 37° C., prior to addition of 400 μl organoid culture medium to each well, with or without supplementation with 100 nm DHT in the presence or absence of drugs. The culture medium was changed every other day, and organoids were counted after 8 days. Drugs were dissolved in DMSO to generate a final concentration of 0.1% in all drug-treated groups. Drug concentrations were as follows: 100 nM DHT, no additions, 0.1% DMSO, 10 μM enzalutamide (provided by Charles Sawyers, Memorial Sloan-Kettering Cancer Center), 1 nM MK-8669 (provided by Cory Abate-Shen, Columbia University Medical Center).

[5] = test system: AR-regulated genes; settings: after DHT withdrawal, passage 1
Method: as §1
For RNA extraction, 4-6 wells of organoids were pooled, pelleted, and dissolved in Trizol reagent prior to processing by the MagMAX 96 Total RNA Isolation Kit (Ambion, Life Technologies). 300-500 ng of RNA was used for cDNA synthesis using the Superscript First Strand Synthesis System (Invitrogen). Quantitative real-time PCR was carried out using SYBR green master mix reagent (QIAGEN) in the Realplex2 instrument (Eppendorf). cDNA samples were diluted 1:5 to 1:10 for all analyses, which were performed in triplicate. Expression values were obtained using the ΔΔCT method and normalized to GAPDH expression; average values are shown as the mean±standard deviation (SD).

Compound | AR localisation ([1]; in the absence of DHT) | AR localisation ([1]; in the presence of DHT) | organoid size [2] | AR immunostaining ([3]; in the absence of DHT) | AR immunostaining ([3]; in the presence of DHT) | Frequency (efficiency of organoid formation), Average [4] [%] | Total organoids counted [4] | Frequency (efficiency of organoid formation) [4] | expression of Fkbp5, Mme, and Psca [5] | expression of Igfbp3 [5] | effect on organoid formation [4]
C[C@]12CCC(=O)C[C@@H]1CC[C@@H]1[C@@H]2CC[C@]2(C)[C@@H](O)CC[C@@H]12 [DHT, dihydrotestosterone] | mostly cytoplasmic AR | nuclear AR | reduced in size | weaker and mostly cytoplasmic | nuclear | 17.4 | 166 and 194 and 162 | 16.6% and 19.4% and 16.2% | down-regulated | up-regulated | –
CO[C@H]1C[C@@H]2CC[C@@H](C)[C@@](O)(O2)C(=O)C(=O)N2CCCC[C@H]2C(=O)O[C@H]([C@H](C)C[C@@H]2CC[C@@H](OP(C)(C)=O)[C@H](OC)C2)CC(=O)[C@H](C)/C=C(\C)[C@@H](O)[C@@H](OC)C(=O)[C@H](C)C[C@H](C)/C=C/C=C/C=C/1C [MK-8669, ridaforolimus] | – | – | – | – | – | 15.9 | 179 and 154 and 145 | 17.9% and 15.4% and 14.5% | – | – | minimal effects
CNC(=O)c1ccc(N2C(=S)N(c3ccc(C#N)c(C(F)(F)F)c3)C(=O)C2(C)C)cc1F [Enzalutamide, enzalutamide] | – | – | – | – | – | 14.9 | 134 and 163 and 150 | 13.4% and 16.3% and 15.0% | – | – | minimal effects
